Active and inactive are the calls of the source. The rule behind the calls is not given here.
Columns and labels:
[1] = test system: HepG2; test: Cytotoxicity against human HepG2 cells assessed as reduction in cell viability at 10 to 20 uM by MTT assay; assay type: cell-based; conditions: hepg2, 20 µM, dose 10-20 µM
[2] = test system: 3T3-L1; test: Hypolipidemic activity in mouse 3T3-L1 preadipocytes assessed as reduction in lipid content at 10 uM by Oil Red O staining based assay relative to control; assay type: functional; parameters: scale not given: the % may be the effect or the level left
[3] = test system: HepG2; test: Hypolipidemic activity in oleic, palmitic, linoleic and arachidonic acid 29:47:18:6 (v/v)-induced hyperlipidemia in human HepG2 cells assessed as reduction in lipid content at 10 uM by Oil Red O staining based assay relative to control; assay type: functional; parameters: scale not given: the % may be the effect or the level left
[4] = test system: 3T3-L1; test: Hypolipidemic activity in mouse 3T3-L1 mature adipocytes assessed as reduction in lipid content at 10 uM by Oil Red O staining based assay relative to control; assay type: functional; parameters: scale not given: the % may be the effect or the level left
[5] = test system: Mus musculus; test: Hypolipidemic activity in tyloxapol-induced Kunming mouse model of hyperlipidemia assessed as reduction in serum LDL level at 100 mg/kg, po measured after 24 hrs; assay type: functional, organism-based
[6] = test system: Mus musculus; test: In vivo effect on PPAR signaling in tyloxapol-induced Kunming mouse model of hyperlipidemia assessed as decrease in PPARgamma expression in white adipose tissue at 100 mg/kg, po measured after 24 hrs by Western blot analysis; assay type: functional, organism-based
[7] = test system: Mus musculus; test: In vivo induction of AMPK in tyloxapol-induced Kunming mouse model of hyperlipidemia assessed as increase in CPT-1A phosphorylation in white adipose tissue at 100 mg/kg, po measured after 24 hrs by Western blot analysis; assay type: functional, organism-based
[8] = test system: HepG2; test: Activation of AMPK in oleic, palmitic, linoleic and arachidonic acid 29:47:18:6 (v/v)-induced human HepG2 cells assessed as increase in ACC phosphorylation by Western blot; conditions: filed as activator
[9] = test system: Mus musculus; test: In vivo effect on PPAR signaling in tyloxapol-induced Kunming mouse model of hyperlipidemia assessed as increase in PPARalpha expression in liver at 100 mg/kg, po measured after 24 hrs by Western blot analysis; assay type: functional, organism-based
[10] = test system: Mus musculus; test: Hypolipidemic activity in tyloxapol-induced Kunming mouse model of hyperlipidemia assessed as reduction in serum triglyceride level at 100 mg/kg, po measured after 24 hrs; assay type: functional, organism-based
[11] = test system: Mus musculus; test: Hypolipidemic activity in tyloxapol-induced Kunming mouse model of hyperlipidemia assessed as reduction in lipid level in liver at 100 mg/kg, po measured after 24 hrs by Oil Red O staining based assay; assay type: functional, organism-based
[12] = test system: Mus musculus; test: In vivo induction of AMPK in tyloxapol-induced Kunming mouse model of hyperlipidemia assessed as increase in ACC phosphorylation in liver at 100 mg/kg, po measured after 24 hrs by Western blot analysis; assay type: functional, organism-based
[13] = test system: Mus musculus; test: Hypolipidemic activity in tyloxapol-induced Kunming mouse model of hyperlipidemia assessed as epididymis white adipose tissue index at 100 mg/kg, po measured after 24 hrs (reference value: 23.43 +/- 3.10); assay type: functional
[14] = test system: Mus musculus; test: In vivo effect on PPAR signaling in tyloxapol-induced Kunming mouse model of hyperlipidemia assessed as increase in mTOR phosphorylation in liver at 100 mg/kg, po measured after 24 hrs by Western blot analysis; assay type: functional, organism-based
[15] = test system: Mus musculus; test: In vivo induction of AMPK in tyloxapol-induced Kunming mouse model of hyperlipidemia assessed as increase in AKT phosphorylation in liver at 100 mg/kg, po measured after 24 hrs by Western blot analysis; assay type: functional, organism-based
[16] = test system: Mus musculus; test: In vivo effect on PPAR signaling in tyloxapol-induced Kunming mouse model of hyperlipidemia assessed as decrease in PPARbeta expression in white adipose tissue at 100 mg/kg, po measured after 24 hrs by Western blot analysis; assay type: functional, organism-based
[17] = test system: Mus musculus; test: In vivo induction of AMPK in tyloxapol-induced Kunming mouse model of hyperlipidemia assessed as decrease in FAS expression in white adipose tissue at 100 mg/kg, po measured after 24 hrs by Western blot analysis; assay type: functional, organism-based
[18] = test system: Mus musculus; test: In vivo induction of AMPK in tyloxapol-induced Kunming mouse model of hyperlipidemia assessed as decrease in FAS expression in liver at 100 mg/kg, po measured after 24 hrs by Western blot analysis; assay type: functional, organism-based
[19] = test system: Mus musculus; test: Hypolipidemic activity in tyloxapol-induced Kunming mouse model of hyperlipidemia assessed as reduction in serum ALT level at 100 mg/kg, po measured after 24 hrs; assay type: functional, organism-based
[20] = test system: Mus musculus; test: Hypolipidemic activity in tyloxapol-induced Kunming mouse model of hyperlipidemia assessed as perirenal white adipose tissue index at 100 mg/kg, po measured after 24 hrs (reference value: 18.14 +/- 1.44); assay type: functional
[21] = test system: Mus musculus; test: In vivo induction of AMPK in tyloxapol-induced Kunming mouse model of hyperlipidemia assessed as increase in ACC phosphorylation in white adipose tissue at 100 mg/kg, po measured after 24 hrs by Western blot analysis; assay type: functional, organism-based
[22] = test system: Mus musculus; test: In vivo effect on PPAR signaling in tyloxapol-induced Kunming mouse model of hyperlipidemia assessed as decrease in PPARgamma expression in liver at 100 mg/kg, po measured after 24 hrs by Western blot analysis; assay type: functional, organism-based
[23] = test system: Mus musculus; test: Hypolipidemic activity in tyloxapol-induced Kunming mouse model of hyperlipidemia assessed as reduction in fatty liver phenotype at 100 mg/kg, po measured after 24 hrs; assay type: functional, organism-based
[24] = test system: Mus musculus; test: In vivo effect on PPAR signaling in tyloxapol-induced Kunming mouse model of hyperlipidemia assessed as increase in mTOR phosphorylation in white adipose tissue at 100 mg/kg, po measured after 24 hrs by Western blot analysis; assay type: functional, organism-based
[25] = test system: Mus musculus; test: In vivo effect on PPAR signaling in tyloxapol-induced Kunming mouse model of hyperlipidemia assessed as increase in PPARbeta expression in liver at 100 mg/kg, po measured after 24 hrs by Western blot analysis; assay type: functional, organism-based
[26] = test system: Mus musculus; test: In vivo induction of AMPK in tyloxapol-induced Kunming mouse model of hyperlipidemia assessed as decrease in SREBP1-C expression in white adipose tissue at 100 mg/kg, po measured after 24 hrs by Western blot analysis; assay type: functional, organism-based
[27] = test system: Mus musculus; test: In vivo induction of AMPK in tyloxapol-induced Kunming mouse model of hyperlipidemia assessed as decrease in SREBP1-C expression in liver at 100 mg/kg, po measured after 24 hrs by Western blot analysis; assay type: functional, organism-based
[28] = test system: Mus musculus; test: Hypolipidemic activity in tyloxapol-induced Kunming mouse model of hyperlipidemia assessed as spleen index at 100 mg/kg, po measured after 24 hrs (reference value: 3.87 +/- 0.05); assay type: functional
[29] = test system: HepG2; test: Activation of AMPK in oleic, palmitic, linoleic and arachidonic acid 29:47:18:6 (v/v)-induced human HepG2 cells assessed as increase in AMPK phosphorylation by Western blot; conditions: filed as activator
[30] = test system: Mus musculus; test: Hypolipidemic activity in tyloxapol-induced Kunming mouse model of hyperlipidemia assessed as reduction in serum IL6 level at 100 mg/kg, po measured after 24 hrs; assay type: functional, organism-based
[31] = test system: Mus musculus; test: Hypolipidemic activity in tyloxapol-induced Kunming mouse model of hyperlipidemia assessed as increase in appearance of hepatic lobules at 100 mg/kg, po measured after 24 hrs by Oil Red O staining based assay; assay type: functional, organism-based
[32] = test system: Mus musculus; test: In vivo induction of AMPK in tyloxapol-induced Kunming mouse model of hyperlipidemia assessed as increase in AMPKalpha phosphorylation in liver at 100 mg/kg, po measured after 24 hrs by Western blot analysis; assay type: functional, organism-based
[33] = test system: Mus musculus; test: Hypolipidemic activity in tyloxapol-induced Kunming mouse model of hyperlipidemia assessed as reduction in serum AST level at 100 mg/kg, po measured after 24 hrs; assay type: functional, organism-based
[34] = test system: Mus musculus; test: Hypolipidemic activity in tyloxapol-induced Kunming mouse model of hyperlipidemia assessed as reduction in serum total cholesterol level at 100 mg/kg, po measured after 24 hrs; assay type: functional, organism-based
[35] = test system: Mus musculus; test: Hypolipidemic activity in tyloxapol-induced Kunming mouse model of hyperlipidemia assessed as kidney index at 100 mg/kg, po measured after 24 hrs (reference value: 11.20 +/- 0.58); assay type: functional
[36] = test system: Mus musculus; test: Hypolipidemic activity in tyloxapol-induced Kunming mouse model of hyperlipidemia assessed as liver index at 100 mg/kg, po measured after 24 hrs (reference value: 65.00 +/- 0.87); assay type: functional
[37] = test system: Mus musculus; test: In vivo induction of AMPK in tyloxapol-induced Kunming mouse model of hyperlipidemia assessed as increase in AKT phosphorylation in white adipose tissue at 100 mg/kg, po measured after 24 hrs by Western blot analysis; assay type: functional, organism-based
[38] = test system: Mus musculus; test: In vivo induction of AMPK in tyloxapol-induced Kunming mouse model of hyperlipidemia assessed as increase in AMPKalpha phosphorylation in white adipose tissue at 100 mg/kg, po measured after 24 hrs by Western blot analysis; assay type: functional, organism-based
[39] = test system: Mus musculus; test: In vivo effect on PPAR signaling in tyloxapol-induced Kunming mouse model of hyperlipidemia assessed as increase in PPARalpha expression in white adipose tissue at 100 mg/kg, po measured after 24 hrs by Western blot analysis; assay type: functional, organism-based
[40] = test system: Mus musculus; test: In vivo induction of AMPK in tyloxapol-induced Kunming mouse model of hyperlipidemia assessed as increase in CPT-1A phosphorylation in liver at 100 mg/kg, po measured after 24 hrs by Western blot analysis; assay type: functional, organism-based

SMILES | Activity [1] | Activity [5] | Activity [6] | Activity [7] | Activity [9] | Activity [10] | Activity [11] | Activity [12] | Activity_index [13] | Activity [14] | Activity [15] | Activity [16] | Activity [17] | Activity [18] | Activity [19] | Activity_index [20] | Activity [21] | Activity [22] | Activity [23] | Activity [24] | further results
O=C(/C=C/c1ccc(O)cc1)c1c(O)cc(O)cc1O [4,2',4',6'-TETRAHYDROXYCHALCONE] | Non-Toxic | – | – | – | – | – | – | – | – | – | – | – | – | – | – | – | – | – | – | – | –
CC[C@H](C)C(=O)O[C@H]1C[C@@H](C)C=C2C=C[C@H](C)[C@H](CC[C@@H]3C[C@@H](O)CC(=O)O3)[C@H]21 [LOVASTATIN] | – | – | – | – | – | – | – | – | – | – | – | – | – | – | – | – | – | – | – | – | Activity [2]: 67.14%; Activity [3]: 41.17%; Activity [4]: 47.2%
NC(=O)c1ncn([C@@H]2O[C@H](CO)[C@@H](O)[C@H]2O)c1N [ACADESINE] | – | Active | Active | Active | Active | Active | Active | Active | 20.09 | Active | Active | Active | Active | Active | Active | 15.94 | Active | Active | Active | Active | Activity [8]: Active; Activity [25]: Active; Activity [26]: Active; Activity [27]: Active; Activity_index [28]: 3.01; Activity [29]: Active; Activity [30]: Active; Activity [31]: Active; Activity [32]: Active; Activity [33]: Active; Activity [34]: Active; Activity_index [35]: 8.64; Activity_index [36]: 57.41; Activity [37]: Active; Activity [38]: Active; Activity [39]: Active; Activity [40]: Active
CC(C)=CCc1c(O)cc(O)c(C(=O)/C=C/c2ccc(O)cc2)c1O [DEMETHYLXANTHOHUMOL] | Non-Toxic | – | – | – | – | – | – | – | – | – | – | – | – | – | – | – | – | – | – | – | –
CC(C)OC(=O)C(C)(C)Oc1ccc(C(=O)c2ccc(Cl)cc2)cc1 [FENOFIBRATE] | – | Active | Active | Active | Active | Active | Active | Active | 15.43 | Active | Active | Active | Active | Active | Active | 14.55 | Active | Active | Active | Active | Activity [25]: Active; Activity [26]: Active; Activity [27]: Active; Activity_index [28]: 2.85; Activity [30]: Active; Activity [31]: Active; Activity [32]: Active; Activity [33]: Active; Activity [34]: Active; Activity_index [35]: 9.65; Activity_index [36]: 56.59; Activity [37]: Active; Activity [38]: Active; Activity [39]: Active; Activity [40]: Active
